These results are taken from patent publication US6486350B1, “Biological reagents and methods for determining the mechanism in the generation of β-amyloid peptide” (Elan Pharmaceuticals Inc., priority 1998, dated 2002).

A short description of one series: log P. The class given is physicochemical.
The test system of series [1] is Aβ production in 293 cells. As to the kind of experiment: Inhibition of Aβ production in 293 cells. The note with it: Homo sapiens, HEK293, whole cell. In kind it is cell-based.
In series [2] the test system is high affinity Compound 1 (Aβ lowering) site on SWE293 cells. Nature of the series: Flow cytometry labelling of SWE293 cells with Compound 3. In kind it is cell-based. On the procedure: SWE293 cells were successfully labelled with 5 nM of Compound 3 for flow cytometry analysis (excitation 488 nm, emission 510 (+/−10) nm) to give a four fold increase in fluorescence intensity over background unlabeled cells, consistent with the binding site being in relatively low abundance. At 5 nM concentration this compound only labels the high affinity Compound 1 (Aβ lowering) site. In the presence of 1 μM 5-(S)-[N′-((S)-3,5-Difluorophenyl-α-hydroxyacetyl)-L-alaninyl]amino-7-methyl-5,7-dihydro-6H-dibenz[b,d]azepin-6-one (Example 29), (which is sufficient to completely displace all specifically bound Compound of Example 28 at >>5 nM)), the signal was reduced by 20% (p<0.001), after background subtraction. Compound 3 is obviously a very hydrophobic molecule (log P>3), and the non displaceable signal is almost certainly due to non-specific partitioning into cell membranes.
In general terms: A flow cytometer gives signals particle by particle.

The subject of series [3] is low affinity Compound 1 site, membranes obtained from 293 cells. Nature of the series: Competition with 3H-Compound 1 binding to membranes from 293 cells, low affinity site. The settings on record: 293 cell membranes, n=2. On the procedure: (§1) The compound of Example 28 (Compound 3) was also tested. The high affinity ^3H-N-[8-N′-((2-(R/S)-hydroxy-2-(3,5-difluorophenyl)-acetyl-L-alaninyl)-L-phenylglycine)-3,6-dioxaoctyl]-4,4-difluoro-5,7-dimethyl-4-bora-3α,4α-diaza-s-indacene-3-propionamide (Compound 3) binding site mediates the Aβ lowering activity of Compound 1, whereas the low affinity site is irrelevant to Aβ lowering. […] This wide separation in high and low affinity Ki's (7741.5; n=2) affords a wide window of concentrations of Compound 3 where binding of the compound is almost exclusively to the high affinity Compound 1 site.

Series [4] concerns the target high affinity Compound 1 binding site (Aβ lowering) in 293 membranes (Homo sapiens, UniProt P49768). As to the kind of experiment: Saturation binding of 3H-Compound 1 in 293 membranes, high affinity site. On the procedure: (§2) The pharmacological profile of ^3H-5-(S)-(N′-((S)-(+)-2-Hydroxy-3-methylbutyryl)-L-alaninyl)amino-7-methyl-5,7-dihydro-6H-dibenz[b,d]azepin-6-one (Compound 1 from Example 30) has been studied in 293 membranes. There are two distinct binding components in the membrane preparations. Saturation binding analysis utilizing 0-50 pM and 0-150 nM ^3H-Compound 1 reveal two sites (KD1=52.7 pM [Bmax1=710 fmol/mg protein]; KD2=32.5 nM [Bmax2=34.4 pmol/mg protein]).
as §1

Series [5] addresses low affinity Compound 1 site in 293 membranes. Nature of the series: Saturation binding of 3H-Compound 1 in 293 membranes, low affinity site. The note with it: 0-150 nM 3H-Compound 1, 293 membranes, read-out: KD2. The protocol: as §2, §1

One may read the logP as the decadic logarithm of the partition coefficient of the neutral form, usually between octanol and water. A lower logP goes with lower lipophilicity. As usually defined, the IC50 is the concentration needed to halve the response being measured. Read a low IC50 as higher potency. A word on the Ki: it is a dissociation constant, usually derived from enzyme kinetics or from competition with a known ligand. Lower therefore signals a stronger hold on the target.

Each structure is given as a SMILES string. Bounds are passed on as bounds.

Regarding `Cc1cc(C)n2c1C=C1C=CC(CCC(=O)NCCOCCOCCNC(=O)C(NC(=O)C(C)NC(=O)C(O)c3cc(F)cc(F)c3)c3ccccc3)=[N+]1[B-]2(F)F` (racemic) [Compound 3, N-[8-N′-((2-(R/S)-hydroxy-2-(3,5-difluorophenyl)-acetyl-L-alaninyl)-L-phenylglycinyl)amino-3,6-dioxaoctyl]-4,4-difluoro-5,7-dimethyl-4-bora-3α,4α-diaza-s-indacene-3-propionamide], the logP in “log P” was over 3. Also, the IC50 in series [1] is 0.585 nM. Also, the “increase in fluorescence intensity over background unlabeled cells” value in series [2] (SWE293 cells labelled with 5 nM, flow cytometry, excitation 488 nm, emission 510 (+/−10) nm) is on record as “four fold”. In series [3], the Ki amounted to 574 nM.
`CC(C)[C@H](O)C(=O)N[C@@H](C)C(=O)NC1C(=O)N(C)c2ccccc2-c2ccccc21` (stereo partly drawn) [Compound 1, 5-(S)-(N′-((S)-(+)-2-Hydroxy-3-methylbutyryl)-L-alaninyl)amino-7-methyl-5,7-dihydro-6H-dibenz[b,d]azepin-6-one] yielded a Bmax1 in series [4] of 710 fmol/mg protein. Also, the Kd in series [5] came to 32.5 nM.
On to `C[C@H](NC(=O)[C@@H](O)c1cc(F)cc(F)c1)C(=O)N[C@@H]1C(=O)N(C)c2ccccc2-c2ccccc21` [Example 29, 5-(S)-[N′-((S)-3,5-Difluorophenyl-α-hydroxyacetyl)-L-alaninyl]amino-7-methyl-5,7-dihydro-6H-dibenz[b,d]azepin-6-one], for which, in series [2] (1 μM competitor, SWE293 cells labelled with 5 nM Compound 3, after background subtraction, p<0.001), the “reduction of Compound 3 fluorescence signal” value amounted to 20%.
